The text below walks through data of ChEMBL document CHEMBL3507680, “University of Dundee, Gates Library screen for HepG2 cell viability”.

This data set in a line: Human HepG2 cell viability assay in 384 well format. It is filed as toxicity, cell-based. Also noted: dose 125 nL, time 70.5 hour; cytotoxicity at 70.5 h: concentration not given beside the values. The settings on record: HepG2 cells, read-out: Inhibition.
With `CCCc1ccc2oc(C(=O)N3CCC(O)CC3)c(C)c2c1`, the cytotoxicity at 70.5 h stood at 6.68%.
With `COc1ncc(C(=O)N(Cc2cnn(C)c2)C(C)C)cn1`, the cytotoxicity at 70.5 h was -7.11%.
As for `Cc1ccc(CN2C[C@H]3C(=O)N(CC4CC4)C[C@@]3(C(=O)O)C2)c(F)c1F`, the cytotoxicity at 70.5 h is 9.58%.
As to `Cc1ncoc1C(=O)N1CCOC(CC2CCCCC2)C1` (configuration not stated), the cytotoxicity at 70.5 h was -5.24%.
For the molecule `CC[C@H]1COCCN1C(=O)c1cnc(N2CCN(C)CC2)nc1C`, the cytotoxicity at 70.5 h is -8.1%.
With `COCCN1CCC(CN(CC2CCCO2)C(=O)C2CCOCC2)CC1` (configuration not stated), the cytotoxicity at 70.5 h was -5.33%.
On to `Cc1ccccc1N1CCCN(C(=O)CCc2nncn2C)CC1`, for which the cytotoxicity at 70.5 h was -7.29%.
On to `Cc1nccc(N[C@H]2CN(C(=O)CN3CCOCC3)C[C@@H]2C(C)C)n1`, for which the cytotoxicity at 70.5 h was -1.67%.
As to `Cc1c(NC(=O)c2cnc[nH]2)cccc1C(=O)NC(C)(C)C`, the cytotoxicity at 70.5 h was -5.11%.
Regarding `CCOc1c(CNC2CSCCSC2)cccc1OC`, the cytotoxicity at 70.5 h is 20.2%.
Consider `CC(C)C[C@H](Nc1nc(C2CCCC2)nc2c1cnn2C)C(N)=O`, for which the cytotoxicity at 70.5 h was -6.77%.
In the case of `COc1ccccc1Oc1ncccc1CNC(=O)[C@H](C)O`, the cytotoxicity at 70.5 h is -6.71%.
As to `CCN1CC(C(=O)N2CCc3cc(C(N)=O)n(C)c3C2)CCC1=O` (configuration not stated), the cytotoxicity at 70.5 h was -6.08%.
In the case of `Cc1ccc([C@@H]2CN(C(=O)CCc3cc(Cl)no3)C[C@H]2N(C)C)cc1`, the cytotoxicity at 70.5 h was 11.1%.
Turning to `O=C(COCc1ccccc1)N1CCN(Cc2ccccc2F)C(=O)C1`, the cytotoxicity at 70.5 h was -9.08%.
`Cc1nn(C)c(C)c1CN(C)C(=O)c1cccc(CCC(C)(C)O)c1`: the cytotoxicity at 70.5 h is -0.259%.
For the molecule `CC(c1ccco1)N(C)Cc1cccc(C(=O)Nc2nccn2C)c1` (configuration not stated), the cytotoxicity at 70.5 h is -5.04%.
`O=C(c1cnn[nH]1)N1CCCC1c1nc2cc(F)ccc2[nH]1` (configuration not stated): the cytotoxicity at 70.5 h was -12.1%.
Consider `COCCC(=O)N1C[C@H](C(C)C)[C@@H](N(C)C)C1`, for which the cytotoxicity at 70.5 h was -14.3%.
For `CCC1CN(C(=O)c2ccccc2C#N)CCN1C(C)C` (configuration not stated), the cytotoxicity at 70.5 h worked out at 14.9%.
In the case of `CCS(=O)(=O)c1ncc(CN(C)C)n1Cc1ccccc1` it was -3.58%; in that of `CCn1ncnc1CN1CCOC(Cc2cccc3ccccc23)C1` (configuration not stated), -7.56%.
Turning to `O=C1CCC(C(=O)N2CCC(Cn3cc(C4CCCC4)nn3)CC2)=NN1`, the cytotoxicity at 70.5 h is -2.69%.
`O=S(=O)(N1CCOCC1)N1CCCCC1CCc1ccc(O)cc1` (configuration not stated): the cytotoxicity at 70.5 h was -1.47%.
Turning to `COc1ccccc1OCCCN1C(=O)CCNC1=O`, the cytotoxicity at 70.5 h stood at 32%.
`CN(Cc1ccncn1)C(=O)c1cccc(CCC(C)(C)O)c1`: the cytotoxicity at 70.5 h was -2.23%.
With `CCOC(=O)CC1CCCCN1C(=O)c1cnc(C)cn1` (configuration not stated), the cytotoxicity at 70.5 h was -4.78%.
For `COCCN1CC2(CCCN(C(=O)NCc3ccccc3)C2)CCC1=O` (configuration not stated), the cytotoxicity at 70.5 h was 0.704%.
As to `O=C(c1ccc(-c2nc[nH]n2)cc1)N1CCOC(C(F)(F)F)C1` (configuration not stated), the cytotoxicity at 70.5 h was 23.3%.
Consider `CCN(C)S(=O)(=O)N1CCCC(c2cccc(C(=O)O)c2)C1` (configuration not stated), for which the cytotoxicity at 70.5 h is -8.54%.
For `Cc1cnccc1NCCn1ccnc1C1CCCCC1`, the cytotoxicity at 70.5 h came out at 0.0765%.
With `COCCn1ccnc1CN1CCc2[nH]cnc2C1c1cnn(C)c1C` (configuration not stated), the cytotoxicity at 70.5 h is -13.2%.
On to `Cc1cc(C)c2c(NCC3(O)CCCCC3)ncnc2n1`, for which the cytotoxicity at 70.5 h was -2.73%.
For the molecule `COc1ccc(C(C(=O)O)N2CCN(C3CCCC3)CC2)cc1OC` (configuration not stated), the cytotoxicity at 70.5 h stood at 12.5%.
With `CCc1cn[nH]c1C1CCN(c2cc(C)c3cccc(OC)c3n2)CC1`, the cytotoxicity at 70.5 h worked out at 0.472%.
The result for `COCCS(=O)(=O)c1ncc(CN(C)C)n1Cc1ccccc1` reads 4.62%; that for `Cc1nc2cc(OCc3nc(C(=O)NC(C)(CO)CO)co3)ccc2s1`, 6.62%; that for `COc1ccc(-n2cccn2)c(CN2CCOCC(CN(C)C)C2)c1` (configuration not stated), 18.8%.
For the molecule `COCCn1cncc1Cn1cccc(C(F)(F)F)c1=O`, the cytotoxicity at 70.5 h was 6.51%.
Turning to `FC(F)(F)c1ccccc1CCC1CCCN(Cc2cscn2)C1` (configuration not stated), the cytotoxicity at 70.5 h came to 44.3%.
In the case of `CN(Cc1nc(Cc2cccc(C(F)(F)F)c2)no1)C(C1CC1)C1CC1`, the cytotoxicity at 70.5 h was -9.87%.
As for `CCN(CCN1CCOCC1)C(=O)c1cccnc1`, the cytotoxicity at 70.5 h was determined as 4.89%.
On to `CCc1nc(N2CCN(Cc3ncccc3C)CC2)c2cnn(C)c2n1`, for which the cytotoxicity at 70.5 h is -4.75%.
In the case of `CC(C(=O)N(C)Cc1noc(C2CCC2)n1)N1CCc2ccccc2C1` (configuration not stated), the cytotoxicity at 70.5 h worked out at 23.9%.
Consider `CC(C)=CCN1C(=O)[C@H]2CC[C@@H]1CN(c1ncccc1F)C2`, for which the cytotoxicity at 70.5 h is -22.9%.
The result for `O=C(CO)N1CCC2(CC1)CC(=O)N(Cc1cc(F)cc(F)c1)C2` reads -1.76%.
Turning to `CCC(CO)N(Cc1cccc(-n2cccn2)c1)Cc1ccccn1` (configuration not stated), the cytotoxicity at 70.5 h is 8.06%.
In the case of `CC(c1ccncn1)N(C)S(=O)(=O)NCc1ccccc1` (configuration not stated) it was 47.6%.
On to `CCC(C)N(Cc1sccc1C)C(=O)c1ccc(S(C)(=O)=O)cc1` (configuration not stated), for which the cytotoxicity at 70.5 h is -4.15%.
Take `CCOc1ccc(-c2c(-c3ccccc3)ncn2C2CCNC2)cn1` (configuration not stated): the cytotoxicity at 70.5 h was -12.8%.
As for `OCc1ccc(-c2c(-c3ccccc3)ncn2CCN2CCOCC2)o1`, the cytotoxicity at 70.5 h worked out at 16.6%.
`CN1CC2(CCN(C(=O)CCc3nc4cccnc4n3C)C2)OC1=O` (configuration not stated): the cytotoxicity at 70.5 h is 15.3%.
The result for `COCC(=O)NCC1CCCN(Cc2cc3ccccc3[nH]2)C1` (configuration not stated) reads -13.5%; that for `CCc1nccc(CN2CCCC(CNC(=O)c3ccccn3)C2)n1` (configuration not stated), -3.62%.
In the case of `Cc1ccc(CSc2nc(N)cc(NCCC(=O)N3CCCC3)n2)cc1` it was -4.18%.
`NCC1Cc2cccc(-c3ccc(O)c(F)c3)c2O1` (configuration not stated): the cytotoxicity at 70.5 h was -13.6%.
`CC(=O)Nc1ccsc1C(=O)N1CC[C@@H]2CC[C@H](C1)N2C`: the cytotoxicity at 70.5 h was -6.78%.
Take `Cc1ccc(N2C[C@H](O)[C@@H](N3CCN(c4ccccn4)CC3)C2)nn1`: the cytotoxicity at 70.5 h is -11.3%.
For `Cc1ccccc1N1CCCN(C(=O)CCc2ccncc2)CC1`, the cytotoxicity at 70.5 h was -9.24%.
`Cc1ccc(OC2(C(=O)O)CCN(C(=O)c3ccsc3)CC2)cn1`: the cytotoxicity at 70.5 h is -4.13%.
With `CCCN1CCC(CC(=O)NCc2cc(O)ncn2)CC1`, the cytotoxicity at 70.5 h was -11.6%.
`Cc1ccccc1NC(=O)N1CCN(C(=O)C2CC2)[C@@H]2CS(=O)(=O)C[C@@H]21`: the cytotoxicity at 70.5 h is -6.63%.
For the molecule `Clc1cccc2c1CCN(Cc1nc(CC3CC3)no1)C2`, the cytotoxicity at 70.5 h was -5.71%.
Regarding `COc1ccc2[nH]c(CNc3cc(C4CCNCC4)nc(C)n3)cc2c1`, the cytotoxicity at 70.5 h is -3.5%.
In the case of `CC(C)=CCN1C[C@H]2CC[C@@H]1CN(Cc1cc(=O)[nH]c(=O)[nH]1)C2`, the cytotoxicity at 70.5 h is -3.94%.
`CCN(CCc1nc2cc(C)ccc2[nH]1)C(=O)COC`: the cytotoxicity at 70.5 h was -4.93%.
For the molecule `Cc1ccc2[nH]c(CN(C)Cc3n[nH]c4c3CCC4)nc2c1`, the cytotoxicity at 70.5 h is -3.51%.
The result for `COc1cccc(OC)c1OCCN1C(=O)CCNC1=O` reads 26.5%; that for `Cc1ccccc1C(=O)NC[C@@H]1CCN(C(=O)CN2CCCC2)C[C@H]1O`, -5.06%; that for `CN(Cc1cnc(N)nc1)C(=O)c1coc(COc2ccccc2)n1`, -2.22%.
For `CC(C)c1nnc(NCc2cc3n(n2)CCNC3)s1`, the cytotoxicity at 70.5 h is -8.56%.
In the case of `CC(=O)NCCC1CCCCN1C(=O)c1cccc(CCC(C)(C)O)c1` (configuration not stated) it was -6.03%; in that of `CCNC(=O)[C@@H]1C[C@H](N)CN1Cc1ccc(-c2cc[nH]n2)o1`, 9.98%; in that of `COC(=O)C1CCCN1C(=O)c1cc(CC(C)C)no1` (configuration not stated), -1.76%.
The result for `O=C(O)C1c2nc[nH]c2CCN1Cc1cc(-c2ccccc2)no1` (configuration not stated) reads -4.98%; that for `COCCN(C)C[C@@H]1CN(C(=O)c2ccc3c(c2)OCO3)C[C@@H]1CO`, -12.8%; that for `CCN(CC)C(=O)Cn1cc(C(=O)NCCCc2scnc2C)nn1`, -4.02%.
Regarding `Cc1ccsc1C(=O)NCc1cccnc1N(C)CCc1ccccn1`, the cytotoxicity at 70.5 h is -7.98%.
For the molecule `COCCN1CCC(C(=O)N(C)CCOc2ccc(C)cc2Cl)C1` (configuration not stated), the cytotoxicity at 70.5 h was 20.7%.
`O=C(c1cnnn1-c1ccccc1)N1CCCC(c2ccn[nH]2)C1` (configuration not stated): the cytotoxicity at 70.5 h was 48.8%.
In the case of `O=c1[nH]c(-c2cccnc2)nc2c1CCN(S(=O)(=O)N1CCCC1)C2` it was -12%.
As to `COc1ccc(OC2CCN(C(=O)CCc3n[nH]c(N)n3)CC2)cc1`, the cytotoxicity at 70.5 h was found to be 21.5%.
In the case of `COc1cccc(C(=O)N2C[C@H]3CC[C@@H]2CN(Cc2cscn2)C3)c1` it was -23.3%.
For the molecule `CCn1c(CC2CCN(C(=O)C3CNCCO3)CC2)nn(C)c1=O` (configuration not stated), the cytotoxicity at 70.5 h is -16.2%.
The result for `COCCCN1C(=O)CC[C@H]2CN(Cc3cc4ccccc4o3)CC[C@H]21` reads -1.98%; that for `Cc1cc(N2CCN(C(=O)CCc3scnc3C)CC2)nc(N)n1`, 18.7%; that for `CCOc1cccc(CN2CCCC(Nc3ccc(F)cc3)C2)c1O` (configuration not stated), -6.06%.
With `Cn1ccc2c(-c3nccc(N)n3)ccnc21`, the cytotoxicity at 70.5 h amounted to 5.54%.
Regarding `CCn1ncnc1C1CC(=O)NCc2nc(N3CCOCC3)sc21` (configuration not stated), the cytotoxicity at 70.5 h was -20.5%.
Turning to `O=C(CCN1CCCO1)N1CC[C@@H](c2ccc3ccccc3c2)[C@H](O)C1`, the cytotoxicity at 70.5 h is 0.165%.
As for `CC(C)c1nccn1C(C)C(=O)N1CCN(S(C)(=O)=O)CC1` (configuration not stated), the cytotoxicity at 70.5 h was -9.53%.
With `COc1ccccc1CN(C)C(=O)CN1C(=O)OC[C@@H]1c1ccccc1`, the cytotoxicity at 70.5 h was 19.7%.
On to `CCc1nc(C)c([C@H]2CN(C)C[C@@H]2C(=O)NC(C)(C)c2ccccc2)[nH]1`, for which the cytotoxicity at 70.5 h is -6.37%.
Turning to `CCc1cc(N2CCC(NCCc3ccc(C)o3)CC2)nc(C)n1`, the cytotoxicity at 70.5 h is -16.4%.
With `Cc1cc(C2CCCN2C(=O)Cn2c(C)cc(=O)c3ccccc32)on1` (configuration not stated), the cytotoxicity at 70.5 h is -6.42%.
In the case of `Cc1cc2nc(C(C)C)cc(N3CCN(S(N)(=O)=O)CC3)n2n1` it was -3.4%; in that of `CCCS(=O)(=O)N1CCC2(CC1)CC(=O)N(CCCc1ccccc1)C2`, 23.4%.
